16 compounds from ChEMBL document CHEMBL1127822, “6-Alkyl- and 6-arylandrost-4-ene-3,17-diones as aromatase inhibitors. Synthesis and structure-activity relationships” (J Med Chem, 1994) can be followed below.

Experiment [1] has as its target T1, Aromatase (Homo sapiens, UniProt P11511).
T1 sequence (P11511 whole entry): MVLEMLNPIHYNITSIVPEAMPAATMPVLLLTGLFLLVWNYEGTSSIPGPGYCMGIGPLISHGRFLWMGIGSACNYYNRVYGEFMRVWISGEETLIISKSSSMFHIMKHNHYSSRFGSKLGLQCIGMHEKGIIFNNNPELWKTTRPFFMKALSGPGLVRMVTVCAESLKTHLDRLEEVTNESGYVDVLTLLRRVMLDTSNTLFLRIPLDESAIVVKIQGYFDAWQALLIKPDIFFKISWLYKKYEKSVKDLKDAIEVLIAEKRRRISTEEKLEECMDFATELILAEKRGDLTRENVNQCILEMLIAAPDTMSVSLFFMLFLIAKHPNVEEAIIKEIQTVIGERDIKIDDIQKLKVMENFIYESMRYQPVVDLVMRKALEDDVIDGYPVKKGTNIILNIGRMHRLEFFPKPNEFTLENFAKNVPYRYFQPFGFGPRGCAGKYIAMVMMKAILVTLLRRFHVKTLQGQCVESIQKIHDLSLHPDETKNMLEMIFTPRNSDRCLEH
The experiment is described as follows: Binding affinity for human placental microsome aromatase Cytochrome P450 19A1.

Experiment [2] has as its target T1, Aromatase. The experiment is described as follows: Inhibitory concentration was tested on Cytochrome P450 19A1 in human placental microsomes 20 (microg) of protein incubated for 20 min. Details: species or system Placenta.
Experiment [3] concerns the target T1, Aromatase. The experiment is described as follows: Binding affinity for human placental microsome Cytochrome P450 19A1.

`CC12CCC3C(C[C@@H](Cc4ccccc4)C4=CC(=O)CCC43C)C1CCC2=O` (some centres not stated): the Ki (as a rule, the dissociation constant of the complex between target and ligand, obtained from inhibition or displacement) at Aromatase [1] worked out at 63 nM. Also, the half-inhibitory concentration (IC50) (usually the concentration at which inhibition is half-maximal) against Aromatase [2] is 4000 nM.

`CC[C@@H]1CC2C3CCC(=O)C3(C)CCC2C2(C)CCC(=O)C=C12` (some centres not stated) gave a Ki at Aromatase [3] of 1.4 nM. The compound also came in with an IC50 at Aromatase [2] of 140 nM.

Take `CC12CCC3C(C[C@H](Cc4ccccc4)C4=CC(=O)CCC43C)C1CCC2=O` (some centres not stated): the Ki at Aromatase [1] stood at 10 nM. In addition, the IC50 against Aromatase [2] was 660 nM.

With `C[C@@H]1CC2C3CCC(=O)C3(C)CCC2C2(C)CCC(=O)C=C12` (some centres not stated), the Ki at Aromatase [3] amounted to 11 nM. Moreover, at Aromatase [2], the half-inhibitory concentration (IC50) was determined as 720 nM.

For the compound `C#C[C@@H]1CC2C3CCC(=O)C3(C)CCC2C2(C)CCC(=O)C=C12` (some centres not stated), on Aromatase [3], the affinity, expressed as Ki, was 62 nM. The IC50 at Aromatase [2] stood at 1900 nM.

Regarding `CCC[C@H]1CC2C3CCC(=O)C3(C)CCC2C2(C)CCC(=O)C=C12` (some centres not stated), the affinity at Aromatase [1], expressed as Ki, was 6.7 nM. This compound had an IC50 against Aromatase [2] of 390 nM.

In turn, `CCCC[C@H]1CC2C3CCC(=O)C3(C)CCC2C2(C)CCC(=O)C=C12` (some centres not stated) displayed a Ki on Aromatase [1] of 12 nM. In addition, the IC50 on Aromatase [2] is 790 nM.

At Aromatase [3], `CC[C@H]1CC2C3CCC(=O)C3(C)CCC2C2(C)CCC(=O)C=C12` (some centres not stated) displayed a Ki of 4.7 nM. Further, inhibition on Aromatase [2] was half-maximal at 260 nM (IC50).

Consider `CC12CCC3C(C[C@H](c4ccccc4)C4=CC(=O)CCC43C)C1CCC2=O` (some centres not stated), for which, at Aromatase [1], the affinity corresponds to a Ki of 21 nM. Also, half-maximal inhibition at Aromatase [2] (IC50) required 1100 nM.

As to `CC(C)[C@@H]1CC2C3CCC(=O)C3(C)CCC2C2(C)CCC(=O)C=C12` (some centres not stated), affinity at Aromatase [1] was put at a Ki of 22 nM. Further, the IC50 against Aromatase [2] was 1100 nM.

`C[C@H]1CC2C3CCC(=O)C3(C)CCC2C2(C)CCC(=O)C=C12` (some centres not stated): the inhibition constant Ki at Aromatase [3] amounted to 5.6 nM. This compound displayed an IC50 against Aromatase [2] of 350 nM.

`CCC[C@@H]1CC2C3CCC(=O)C3(C)CCC2C2(C)CCC(=O)C=C12` (some centres not stated) registered a Ki on Aromatase [3] of 4.6 nM. Moreover, on Aromatase [2], the IC50 is 240 nM.

In turn, `CCCC[C@@H]1CC2C3CCC(=O)C3(C)CCC2C2(C)CCC(=O)C=C12` (some centres not stated) came in with a Ki on Aromatase [3] of 8.8 nM. Moreover, at Aromatase [2], the IC50 turned out to be 510 nM.

Take `CC12CCC3C(C[C@@H](c4ccccc4)C4=CC(=O)CCC43C)C1CCC2=O` (some centres not stated): on Aromatase [3], the affinity, expressed as Ki, was 37 nM. Moreover, the IC50 at Aromatase [2] stood at 1700 nM.

For `CC(C)[C@H]1CC2C3CCC(=O)C3(C)CCC2C2(C)CCC(=O)C=C12` (some centres not stated), the Ki at Aromatase [1] is 31 nM. The compound further gave an IC50 against Aromatase [2] of 1400 nM.

Turning to `C=C[C@@H]1CC2C3CCC(=O)C3(C)CCC2C2(C)CCC(=O)C=C12` (some centres not stated), the Ki at Aromatase [1] was 5.1 nM. This compound also registered an IC50 against Aromatase [2] of 320 nM.
